From patent US20240248100A1, “SEPTAPEPTIDES ASSOCIATED WITH NEURODEGENERACY” (SEPTA THERAPEUTICS, INC., priority 2018, published 2024)
Entries after “also recorded” stand apart in the source; their conditions may differ.

Tests used:
RG cells = conditions: 1 mM dB-cAMP; cited from earlier work
RG progenitor cells = assay: Maturation (mitogenic-like) activity on rat glial (RG) progenitor cell monolayers, scored visually; assay type: cell-based; conditions: 72 hours, above untreated baseline
Experimental: Since no appropriate CNS-derived cells are available for the detection of Ca^+2 mobilization, a continuous cell line of glial stem cells was established in culture in order to detect mitogenic-like effects scored upon visual examination. Glial cells from normal brain following kainic acid-induced lesions were established in continuous cell culture as previously described by Singh VK and Van Alstyne D., Brain Res (1978) 155:418-421.) Briefly, 1 ul of a solution of kainic acid monohydrate (Sigma), containing 5 nmole kainic acid in 0.9% saline, was injected into rat striatum under anaesthesia. Rats were anaesthetized and decapitated 5 days following injection and the brains were harvested immediately and placed in a sterile glass culture dish. The striatum from the injection site was dissected, placed in MEM (Gibco) containing 0.2% glucose, 10% fetal calf serum, 5 units/ml penicillin, 5 ug/ml streptomycin and then further minced using a sterile scalpel. The culture dish was then incubated at 37° C. in a humidified atmosphere containing 5% CO2. Each day for the first 3-4 days, the unattached tissue fragments were removed, washed once in fresh medium and returned to the culture dish until a complete monolayer was formed. The resulting monolayers were then subcultured every 5-6 days after trypsinization. The monolayers were treated with 0.25% trypsin (Gibco) for 5 minutes at 22° C. The cells were collected by low speed centrifugation, washed twice with complete growth medium, counted and replated in glass culture dishes. Once the cell line was established in glass dishes, the cells were then adapted and transferred to plastic culture dishes.
The mitogenic effect of diBcAMP on RG monolayers is shown in FIGS. 7A (untreated) and 7B (treated) cells after 24 hours. […] Mature cells were characterized using ThermoFisher Scientific CD11b and GFAP (Glial Fibrillary Acidic Protein) monoclonal antibodies AlexaFluor commonly used to detect microglial- and astrocyte-specific markers respectively. (Tran, E., et al. J. Neuroimmunology 74 (1997) 121-129). FIGS. 8A-8D show identical cells under brightfield illumination, with positive staining for microglial and astrocyte markers (CD11b and GFAP markers respectively. The identification of the majority of these cells as microglia, a subset of astrocytes, is significant since an overabundance of microglia has been associated with the development of AD (Weizmann Institute of Science, “The brain's rejuvenating cells,” Science Daily, 9 June, 2017:sciencedaily.com/release/2017/06/170609135903).
Peptides derived from amyloid beta and synthesized by Kinexus Inc. (Vancouver, Canada) were tested for their effects on RG cell cultures, according to the method of Yankner BR, et al., Science (1990) 250:279-282. Since septapeptides may be too small or unstable to form avid bonds with cell surface receptors, the 7 mer was bracketed within a slightly longer 10-mer construct, in order to maximize stability during the incubation procedure. A randomized sequence was used as a negative control.
These peptides were dissolved in DMSO (dimethyl sulfoxide) to maintain stability. This solvent slightly altered the shape of some cells at lower dilutions of peptide, giving a high background. Therefore, to avoid any interference with the results, RG cells were incubated in the presence of peptide concentrations ranging from […] to 10^-7 M for 72 hours. Positive cells were counted and data are presented as the number greater than the baseline number of maximal mature glia in untreated control cultures achieved by day 3, taken to be zero. Results are shown in Table 3 and photos of transformed cells are contained in FIGS. 9A and 9B.

THP-1 cells = assay: Ca+2 mobilization (Indo-1AM fluorescence) and desensitization in THP-1 monocytic cells; assay type: cell-based; conditions: for Ca^+2 flux: peptide alone; for DESENSITIZATION: desensitization of subsequent Ca+2 mobilization by MCP-1 or heterologous septapeptide
Source text: Alternately, chemokine activity can be measured more quantitatively using Ca^+2 mobilization. Chemokines including MCP-1, -2 and -3 bind to several transmembrane, G-protein-linked receptors on the surface of monocytes, macrophages and microglia. Ligand binding induces signal transduction through the receptor-associated heterotrimeric G-proteins, leading to the generation of free Ca^+2 in the cytoplasm of chemokine-stimulated cells. The Ca^+2 rise is transient, and can be measured using a spectrofluorimeter. (The Cytokine Handbook) A typical readout is represented in FIG. 3, showing a positive Ca^+2 mobilization response to MCP-1 in THP-1 cells. THP-1 monocytic cells were loaded with the Ca^+2 indicator dye Indo-1AM and their cytoplasmic Ca^+2 content was measured during laser excitation. As Ca^+2 increases in the cytoplasm, the relative fluorescence intensity (RFI) of the dye increases in real time, exciting the detectors in the spectrofluorimeter. For example, after MCP-1 challenge of THP-1 cells, the RFI increases rapidly, and returns to baseline after about 60 seconds, as exemplified by the “spike” in the trace in FIG. 3 (the smaller peak before the large spike is an artifact generated by the introduction of the sample). Because the heterotrimeric G-proteins involved in the generation of the Ca^+2 signal are both rapidly dissociated and deactivated by phosphorylation, the increase in cytoplasmic Ca^+2 after ligand engagement can be desensitized. Therefore, challenging the cells a second time with MCP-1 would not result in a second spike, nor would a Ca^+2 spike result from subsequent challenge by another ligand which engages the same MCP-1 receptor
Some of the bacterial septapeptide MRHAS's (Sigma) were tested for their ability to increase cytoplasmic Ca^+2, and to desensitize subsequent Ca^+2 mobilization by MCP-1 and heterologous septapeptides. […] These included QQTAPKA (SEQ ID NO: 12) of L.monocytogenes (Figure. 4) and QVQNNKP (SEQ ID NO: 13) from H.influenzae type b (FIG. 5).

CCCC(=O)Nc1ncnc2c1ncn2[C@@H]1O[C@@H]2COP(=O)(O)O[C@H]2[C@H]1OC(=O)CCC [diBcAMP, dibutyryl cyclicAMP]
cells with intracellular astrocyte-specific GFA protein (RG cells): 80% | cells with surface oligodendrocyte-specific galactocerebroside (GC) (RG cells): less than 10%

FLVKAHEQFH [Peptide #3, reference compound]
Maturation activity, % conversion (RG progenitor cells; peptide 10^−6 M (1 uM)): <1% | Maturation activity, % conversion (RG progenitor cells; peptide 10^−7 M (100 nM)): <1%

MCP-1: human Monocyte Chemoattractant Protein 1, chemokine, positive control
Ca^+2 flux (THP-1 cells): positive | Ca^+2 flux (THP-1 cells; listed as hMCP-1): positive Ca^+2 responses

QQQPPKA [S. pneumoniae-derived MRHAS septapeptide]
DESENSITIZATION (THP-1 cells): blocks activation by the Listeria-derived MRHAS; also recorded: positive for QQTAPKA | Ca^+2 flux (THP-1 cells): negative; also recorded: did not induce a Ca^+2 signal

QQTAPKA [L. monocytogenes-derived MRHAS septapeptide]
DESENSITIZATION (THP-1 cells): lack of subsequent desensitization to MCP 1; also recorded: negative for MCP-1 | Ca^+2 flux (THP-1 cells): positive; also recorded: mild Ca^+2 agonists

QVQNNKP [H. influenzae type b-derived MRHAS septapeptide]
relative fluorescence intensity (RFI) (THP-1 cells; Ca+2 mobilization response): 2.0 | DESENSITIZATION (THP-1 cells): blocks activation by the Listeria-derived MRHAS; also recorded: positive for QQTAPKA | Ca^+2 flux (THP-1 cells): mild Ca^+2 agonists; also recorded: weakly positive

^1DAEFRHDSGYEVHHQKLVF^19 [Peptide #1]
Maturation activity, % conversion (RG progenitor cells; peptide 10^−6 M (1 uM)): 63% | Maturation activity, % conversion (RG progenitor cells; peptide 10^−7 M (100 nM)): 41%

^13HHEQKLVFFAE^22 (HHQKLVFFAE) [Peptide #2]
Maturation activity, % conversion (RG progenitor cells; peptide 10^−6 M (1 uM)): 41% | Maturation activity, % conversion (RG progenitor cells; peptide 10^−7 M (100 nM)): 27% | Maturation activity, % conversion (RG progenitor cells; peptide 10^−7 M (100 nM), listed as HHQKLVFFAE): 27%
